# Test results reported in patent US12264150B2, “NR4A1 ligands, pharmaceutical compositions, and related methods of use” (The Texas A&M University System, priority 2017, dated 2025).
# “Also recorded” adds a separate entry of the source.
# Tests used:
# NR4A1, Rab4, AMPK = test: Western blots of whole cell lysates of C2C12 muscle cells; format: cell-based, murine; settings: western blot
# Text: FIGS. 25A-25D are images of western blots of whole cell lysates of C2C12 cells treated with C-DIM analogs, according to embodiments of the present disclosure;
# (§1) There is also evidence that NR4A1 plays a role in enhancing glucose metabolism in muscle and this is consistent with potential anti-diabetic activity for NR4A1 ligands which has previously been reported for cytosporone-derived NR4A1 ligands in mouse models. Initial studies with DIM-C-pPhOH and second generation substituted analogs used C2C12 muscle cells as a model for investigating the anti-diabetic activity of these compounds. FIGS. 25A-25D illustrate that NR4A1 is expressed in C2C12 cells and treatment with C-DIM8 (DIM-C-pPhOH) or the second generation substituted C-DIM8 analogs 3,5-dibromo-(C-DIM8-3,5-Br2), 3-chloro-(C-DIM8-3-Cl), and 3-chloro-5-methoxy-(C-DIM8-3-Cl-5-OCH3) increased expression of NR4A1 in C2C12 cells.
# G6Pase and PEPCK = G6Pase and PEPCK in glucose-starved HepG2 cells; format: cell-based
# [1] = cited from earlier work
# NR4A1 LBD = biological target: T1, NR4A1 LBD (Homo sapiens, UniProt P22736); test: Surface plasmon resonance binding, immobilized NR4A1 LBD; settings: 5 or 10 μM ligand, 25° C., Biacore 3000, CM5 chip
# T1 construct: Purified NR4A1 and NR4A2 LBD proteins were covalently immobilized
# T1 sequence (P22736 360-595 limits assumed, species assumed): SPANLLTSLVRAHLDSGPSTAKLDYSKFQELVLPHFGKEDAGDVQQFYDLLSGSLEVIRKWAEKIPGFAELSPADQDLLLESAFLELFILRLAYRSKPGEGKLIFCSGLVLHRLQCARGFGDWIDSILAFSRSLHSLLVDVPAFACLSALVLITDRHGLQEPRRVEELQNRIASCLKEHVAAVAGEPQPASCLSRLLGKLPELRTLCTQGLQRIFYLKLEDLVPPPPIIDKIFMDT
# Experimental: (§2) Binding experiments were performed using the SPR method at 25° C. on Biacore 3000 system (GE Healthcare). Purified NR4A1 and NR4A2 LBD proteins were covalently immobilized on CM5 sensor chip (GE) using an amine coupling procedure. Alternatively, the more expensive his-tag-binding NTA sensor chip (GE) can be used to insure correct protein surface orientation. SPR response curves (sensorgrams) were generated after ligand injection using 5 or 10 μM DIM-C-pPhX analogs with X=Br (#2), X═OH (#8), X═CN (#10) and X═CO2Me (#14) (see FIG. 22).
# GAL4-NR4A1 = test: GAL4-NR4A1/UAS-Luc transactivation (luciferase) in Panc1 cells; format: cell-based
# Text: (§3) FIG. 2 graphically illustrates luciferase activity in Panc1 cells transfected with GAL4-NR4A1 and GAL4-NR4A2 and UAS-Luc (GAL4-binding luciferase construct) treated with 4-, 3- and 2-hydroxy C-DIM analogs according to embodiments of the present disclosure;
# Therefore, nine substituted 4-hydroxy analogs were synthesized to investigate their relative potencies as NR4A1 ligands and their half-lives since some of the substituents buttress the hydroxy group. Their effects on activation/inactivation of GAL4-NR4A1 and GAL4-NR4A2 in Panc1 cells were determined (see FIGS. 9 and 13).
# tumor growth = settings: cited from earlier work
# TXNDC5 and PAX3-FOX01A = test: Western blot of NR4A1-regulated gene products in Rh30 rhabdomyosarcoma cells; format: cell-based; settings: 20 μM
# Text: FIG. […]
# The effects of the 4-hydroxy reference compound and the nine analogs were compared with respect to down-regulation of two NR4A1-regulated gene products in Rh30 rhabdomyosarcoma cells, namely TXNDC5 and PAX3-FOX01A. […] The results also indicate that NR4A1-dependent transactivation assays appear to be less predictive than NR4A1-regulated gene products in determining differences in NR4A1 antagonist potencies.
# SERPINB5 [2] = test: SERPINB5 induction (western blot) in SKBR3 breast cancer cells; format: cell-based; settings: for potency order for inducing SERPINB5: western blot, FIGS. 3 and 5
# Text: FIG. 5 includes images of western blots of SKBR3 (breast) cancer cells treated with 4-, 3- and 2-hydroxy C-DIM compounds, according to embodiments of the present disclosure, showing up-regulation of expression of SERPINB5;
# In this study, the DMSO (control) value was relatively high, resulting in low induction by the 4-hydroxy compound, whereas in other experiment induction was observed due to lower basal SERPINB5 levels.
# NR4A1 = NR4A1 (Homo sapiens, UniProt P22736); test: NR4A1 binding affinity of the 4-hydroxy compound
# Chain of NR4A1 (P22736 whole entry, species assumed): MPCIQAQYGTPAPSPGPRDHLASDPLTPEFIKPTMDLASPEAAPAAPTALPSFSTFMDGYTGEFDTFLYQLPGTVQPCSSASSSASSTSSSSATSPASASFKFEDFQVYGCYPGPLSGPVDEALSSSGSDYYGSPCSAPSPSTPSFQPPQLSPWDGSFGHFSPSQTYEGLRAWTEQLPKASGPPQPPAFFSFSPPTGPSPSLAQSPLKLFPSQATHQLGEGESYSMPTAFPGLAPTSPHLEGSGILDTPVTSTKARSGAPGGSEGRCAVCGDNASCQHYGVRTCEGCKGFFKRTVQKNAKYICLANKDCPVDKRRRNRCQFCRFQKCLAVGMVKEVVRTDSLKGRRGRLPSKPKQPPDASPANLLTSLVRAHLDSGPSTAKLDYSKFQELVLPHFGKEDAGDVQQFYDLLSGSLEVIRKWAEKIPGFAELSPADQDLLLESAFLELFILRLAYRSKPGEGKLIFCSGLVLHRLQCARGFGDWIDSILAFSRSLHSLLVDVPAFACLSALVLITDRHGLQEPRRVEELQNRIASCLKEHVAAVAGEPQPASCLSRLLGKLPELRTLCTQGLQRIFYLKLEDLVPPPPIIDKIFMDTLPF
# cancer cell lines = settings: cited from earlier work
# [3] = test system: NR4A1 and GLUT-4 gene expression; test: NR4A1/GLUT-4 mRNA expression in C2C12 cells; format: cell-based, murine
# Text: FIGS. 26A-26D graphically illustrate relative NR4A1/glucose transporter 4 (GLUT-4) mRNA expression in C2C12 cells treated with C-DIM analogs, according to embodiments of the present disclosure;
# as §1
# SERPINB5 [4] = test: SERPINB5 induction (western blot) in Panc1 cells; format: cell-based; settings: 20 μM
# C2C12 cells = test: Glucose uptake in C2C12 cells; format: cell-based, murine; settings: 15 and 20 μM
# Text: FIG. 27 graphically illustrates glucose uptake in C2C12 cells treated with C-DIM analogs, according to embodiments of the present disclosure;
# β1-integrin and TXNDC5 = test: Western blot down-regulation of β1-integrin and TXNDC5 in Panc1 and SKBR3 cells; format: cell-based; settings: FIG. 3
# Text: FIG. 3 includes images of western blots of Panc1 (pancreatic) and SKBR3 (breast) cancer cells treated with monohydroxy C-DIM compounds, according to embodiments of the present disclosure, showing down-regulation of expression of two NR4A1-dependent factors, β1-integrin and TXNDC5;
# Compared to the 4-bromo standard NR4A2 ligand, the 3- and 2-hydroxy isomers had minimal NR4A2 activity. […] The results correlate with the transactivation data.
# GAL4-NR4A2 = test: GAL4-NR4A2/UAS-Luc transactivation (luciferase) in Panc1 cells; format: cell-based
# Text: as §3
# FIG. 13 graphically illustrates luciferase activity in Panc1 cells transfected with GAL4-NR4A2 and UAS-Luc treated with 3-hydroxy C-DIM analogs, according to embodiments of the present disclosure;
# FIG. 15 graphically illustrates luciferase activity in Panc1 cells transfected with GAL4-NR4A2 and UAS-Luc treated with 2-hydroxy C-DIM analogs, according to embodiments of the present disclosure;
# [5] = test system: human MDA-MB-231 breast cancer cells; test: Orthotopic breast tumor growth in athymic nude mice; format: in vivo, mouse; settings: for tumor growth: 10 mg/kg/day, athymic nude mice, orthotopic model; for ED50 values for tumor growth inhibition: expected from the 10 mg/kg/day result
# Experimental: FIGS. 12A-12C graphically illustrate mammary tumor volume in an athymic nude mouse xenograft model using human MDA-MB-231 breast cancer cells treated with 4-hydroxy C-DIM analogs (10 mg/kg/day) (black) relative to a control (gray), according to embodiments of the present disclosure;
# [6] = Blood glucose in C57BL/6 mice on a high-fat diet; format: in vivo, mouse
# NR4A2 LBD = biological target: T2, NR4A2 LBD (Homo sapiens, UniProt P43354); test: Surface plasmon resonance binding, immobilized NR4A2 LBD; settings: 5 or 10 μM ligand, 25° C., Biacore 3000, CM5 chip
# T2 construct: Purified NR4A1 and NR4A2 LBD proteins were covalently immobilized
# T2 sequence (P43354 360-595 limits assumed, species assumed): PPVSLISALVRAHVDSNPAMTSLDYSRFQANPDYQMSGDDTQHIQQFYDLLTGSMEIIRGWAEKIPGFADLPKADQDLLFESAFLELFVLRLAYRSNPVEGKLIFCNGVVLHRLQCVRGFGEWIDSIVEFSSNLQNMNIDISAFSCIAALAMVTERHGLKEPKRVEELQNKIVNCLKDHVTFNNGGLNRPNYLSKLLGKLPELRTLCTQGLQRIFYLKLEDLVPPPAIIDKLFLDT
# Experimental: as §2
# RMS xenograft tumor = test: RMS mouse xenograft tumor growth
# PFKM, PGAM2, BPGM, PYGM = test: mRNA expression of glycolytic genes in C2C12 cells; format: cell-based, murine
# Text: FIGS. 28A-28E graphically illustrate relative mRNA expression of glycolytic genes in C2C12 cells treated with DIM-C-pPhOH (A), DIM-C-pPhOH-3,5-Br2 (B), DIM-C-pPhOH-3-Cl (C), and DIM-C-pPhOH-3-Cl-5-OCH3 (D) for 24 hr, or cells were transfected with NR4A1 expression plasmid (E);
# Overexpression of NR4A1 in C2C12 cells induces several genes involved in glycolysis including phosphofructokinase (PFKM), phosphoglycerate mutase 2 (PGAM2), bisphosphoglycerated mutase (BPGM), and glycogen phosphorylase M (PYGM).
smiles,measurement,setting,value
Oc1ccc(C(c2c[nH]c3ccccc23)c2c[nH]c3ccccc23)cc1 [DIM-C-pPhOH],expression of NR4A1,"NR4A1, Rab4, AMPK",increased
same,G6Pase and PEPCK mRNA levels,G6Pase and PEPCK,inhibit
same,in vivo half-life,[1],short; also recorded: very short
same,serum half-life,[1]; in vivo,relatively short
same,SPR binding to NR4A1,NR4A1 LBD,bound with high affinity
same,concentration at which significant inhibition of GAL4-NR4A1 transactivation was observed,GAL4-NR4A1; not at 15 μM (steep dose response curve),22.5 µM
same,partial tumor growth inhibition,"tumor growth; 30-40 mg/kg/day, previous studies",40-50%
same,doses at which tumor growth is (partially) inhibited,"tumor growth; mouse, in vivo",30 to 40 mg/kg/day
same,doses at which tumor growth is only partially inhibited,"tumor growth; mouse, in vivo",40 to 50 mg/kg/day
same,decreased expression of TXNDC5 and PAX3-FOX01A,TXNDC5 and PAX3-FOX01A,50-60%
same,induction of SERPINB5,"SERPINB5 [2]; SKBR3 cells, 20 μM, DMSO control value relatively high",minimally induced
same,potency order for inducing SERPINB5,SERPINB5 [2],2-OH/3-OH>4-OH
same,binding to NR4A1,NR4A1,high affinity
same,receptor-independent activities such as mitochondrial toxicity,cancer cell lines; cancer cell lines,minimal
same,concentrations that block the pro-oncogenic pathways,cancer cell lines; cell culture,10 to 20 µM
same,NR4A1 and GLUT-4 gene expression,[3],induce
same,concentration of maximal induction of NR4A1 and GLUT-4 gene expression,[3],20 µM
same,induction of SERPINB5,SERPINB5 [4],induced SERPINB5
same,glucose uptake,C2C12 cells,significantly induced
Oc1cccc(C(c2c[nH]c3ccccc23)c2c[nH]c3ccccc23)c1 [3-hydroxy compound],potency in down-regulation of β1-integrin and TXNDC5 vs the 4-hydroxy compound,β1-integrin and TXNDC5,more potent
same,potency order for inducing SERPINB5,SERPINB5 [2],2-OH/3-OH>4-OH
same,NR4A2 activity (GAL4-NR4A2) compared to the 4-bromo reference,GAL4-NR4A2,minimal
COc1cc(C(c2c[nH]c3ccccc23)c2c[nH]c3ccccc23)cc(Cl)c1O [C-DIM8-3-Cl-5-OCH3],expression of NR4A1,"NR4A1, Rab4, AMPK",increased
same,tumor growth,[5],inhibited tumor growth
same,ED50 values for tumor growth inhibition,[5],low mg/kg/day or high μg/kg/day range
same,serum glucose levels in a glucose tolerance test compared to control animals,[6]; 10 mg/kg/d,decreased
same,serum glucose,"[6]; 25 mg/kg/d, current study",decreased
same,serum insulin levels,"[6]; 25 mg/kg/d, current study",increased
same,blood glucose levels,"[6]; HFD C57BL/6 mice, 10 mg/kg/d in corn oil, every second day, oral gavage",significant decrease
Oc1ccccc1C(c1c[nH]c2ccccc12)c1c[nH]c2ccccc12 [2-hydroxy compound],potency in down-regulation of β1-integrin and TXNDC5 vs the 4-hydroxy compound,β1-integrin and TXNDC5,more potent
same,potency order for inducing SERPINB5,SERPINB5 [2],2-OH/3-OH>4-OH
same,NR4A2 activity (GAL4-NR4A2) compared to the 4-bromo reference,GAL4-NR4A2,minimal
"Brc1ccc(C(c2c[nH]c3ccccc23)c2c[nH]c3ccccc23)cc1 [DIM-C-pPhBr, 1,1-bis(3′-indolyl)-1-(p-bromophenyl)methane]",SPR binding to NR4A1,NR4A1 LBD,sticky interactions
same,SPR binding to NR4A2,NR4A2 LBD,sticky interactions
"Oc1c(Br)cc(C(c2c[nH]c3ccccc23)c2c[nH]c3ccccc23)cc1Br [C-DIM8-3,5-Br2]",expression of NR4A1,"NR4A1, Rab4, AMPK",increased
same,G6Pase and PEPCK mRNA levels,G6Pase and PEPCK,inhibit
same,tumor growth,[5],inhibited tumor growth
same,ED50 values for tumor growth inhibition,[5],low mg/kg/day or high μg/kg/day range
same,RMS tumor growth,RMS xenograft tumor; 0.25 mg/kg/d,tumor growth inhibition
same,RMS tumor growth,"RMS xenograft tumor; doses of 10.0, 7.5, 5.0 and 2.5 mg/kg/day",complete tumor growth inhibition
same,toxicity,"RMS xenograft tumor; in vivo study, RMS xenograft",not observed
CN(C)C(=N)N=C(N)N [metformin],"expression of glycolytic genes PFKM, PGAM2, BPGM, PYGM","PFKM, PGAM2, BPGM, PYGM",significantly induced
same,NR4A1 and GLUT-4 gene expression,[3],induce
Oc1ccc(C(c2c[nH]c3ccccc23)c2c[nH]c3ccccc23)cc1Cl [C-DIM8-3-Cl],expression of NR4A1,"NR4A1, Rab4, AMPK",increased
same,tumor growth,[5],inhibited tumor growth
same,ED50 values for tumor growth inhibition,[5],low mg/kg/day or high μg/kg/day range
Oc1ccc(C(c2c[nH]c3ccccc23)c2c[nH]c3ccccc23)cc1F [3-fluoro-4-hydroxy analog],potency as inhibitors of NR4A1-dependent transactivation relative to the 4-hydroxy reference compound,GAL4-NR4A1; tested at 7.5 μM and 15 μM,exception
Oc1cccc(C(c2c[nH]c3ccccc23)c2c[nH]c3ccccc23)c1Br [2 bromo (3-hydroxy analog)],potency in NR4A1-dependent transactivation vs unsubstituted 3- and 4-hydroxy DIM standards,"GAL4-NR4A1; substituted 3-hydroxy DIM analogs, FIG. 7",more potent
